Holding throughout (test): inhibition of tumour cell growth, NCI panel, 48 h
Test [1] deals with A498 renal.
In test [2] the test system is ACHN renal.
Test [3] concerns CCRF-CEM leukemia.
Test [4] relates to HCT-15 colon.
Test [5] deals with HT29 colon.
For test [6], the system named is MDA-MB-435.
Test [7] concerns NCI/ADR-RES ovarian.
Test [8] relates to T-47D breast.
The test system of test [9] is U251 CNS.
Test [10] deals with UACC-257 melanoma.

Where “and” joins values, the source holds several entries; their conditions need not be identical. Equal entries are not always repeated.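 Assay format: 96-well plates, 48-hour exposure. At the GI50, growth is halved. TGI is the concentration that stops growth completely.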

As to `N#Cc1c(NC(=O)c2ccccc2F)sc2c1CCCC2`, the GI50 in [1] was more than 16.7 µM; in test [2], more than 25 µM; in test [3], more than 25 µM; in [4] it was 21.1 µM; in test [5], 10.4 µM; in test [6], 1.31 µM. Moreover, the GI50 in test [7] is 11.5 µM; in [8] it was more than 25 µM; in test [9] it was more than 25 µM; in test [10] it was more than 25 µM. The TGI in test [1] was more than 25 µM; in test [2], more than 25 µM; in [3] it was more than 25 µM; in [4], more than 25 µM; in [5], more than 25 µM; in [6], more than 12.1 µM. The TGI in [7], in test [8], in [9] and in test [10] was more than 25 µM each time.
Consider `COC1=C(OC)[C@]2(OC)c3c(O)c(OC)c4c(c3O[C@@]23O[C@@H](c2ccccc2)CC=C3C1=O)[C@@H](OC)C[C@H](c1ccccc1)O4`, for which the GI50 is 1.51 µM in [1]; 0.605 µM in [2]; 0.0173 µM in test [3]; 0.29 µM in test [4]; 0.235 µM in [5]; 0.301 µM in test [6]. For the same compound, the GI50 in [7] is 0.607 µM; in [8], 0.564 µM; in [9], 1.41 µM; in [10], 0.814 µM. Also, the TGI in test [1] worked out at 2.94 µM; in test [2], 1.81 µM; in test [3], 0.0631 µM; in test [4], 0.819 µM; in test [5], 0.612 µM; in test [6], 1.1 µM. Moreover, the TGI in test [7] turned out to be 3.74 µM; in test [8], 1.71 µM; in [9], 2.74 µM; in [10], 2.17 µM.
Take `C[C@H]1CN(C2COC2)CCN1c1ccc(Nc2cc(-c3ccnc(N4CCn5c(cc6c5CC(C)(C)C6)C4=O)c3CO)cn(C)c2=O)nc1`: the GI50 in [1] was 10.3 µM; in test [2], 30.2 µM; in test [3] it was 21.4 µM; in test [4], 47 µM; in test [5], 23.8 µM; in [6], 26.4 µM. Further, the GI50 is 47.8 µM in test [7], 19.2 µM in test [8], 44.8 µM in [9] and 27.6 µM in test [10]. The TGI is 33.9 µM in [1]; more than 100 µM in [2]; more than 100 µM in test [3]; more than 100 µM in test [4]; more than 100 µM in test [5]; more than 100 µM in [6]. Also, the TGI was more than 100 µM in [7], more than 100 µM in [8], more than 100 µM in test [9] and 58.1 µM in test [10].
As for `O=C(c1cc(Cc2n[nH]c(=O)c3ccccc23)ccc1F)N1CCN(C(=O)C2CC2)CC1`, the GI50 in [1] is 19 µM and > 55.7 µM; in test [2], 96.1 µM and 88.2 µM; in [3], more than 100 µM; in test [4], more than 100 µM; in test [5], more than 100 µM; in [6], 58 µM and 97.6 µM. For the same compound, the GI50 in [7] is more than 100 µM; in [8], 31.5 µM; in test [9], 35.1 µM and 31.5 µM; in [10], more than 100 µM. Moreover, the TGI in test [1], in [2], in [3], in test [4], in [5] and in test [6] was more than 100 µM in each case. Besides, the TGI in [7], in test [8], in [9] and in test [10] was more than 100 µM throughout.
Take `C[C@@H](NC(=O)c1ccc(F)cc1)c1ccc2c(c1)CCN2C(=O)C1CCOCC1`: the GI50 in test [1] is 17.1 µM; in test [2] it was more than 100 µM; in test [3], more than 100 µM; in test [4], more than 100 µM; in [5], more than 100 µM; in test [6], more than 100 µM. Besides, the GI50 in test [7], in [8], in test [9] and in [10] was more than 100 µM throughout. The TGI was 88.5 µM in [1]; more than 100 µM in [2]; more than 100 µM in test [3]; more than 100 µM in test [4]; more than 100 µM in test [5]; more than 100 µM in test [6]. Further, the TGI in [7], in test [8], in [9] and in test [10] was more than 100 µM throughout.
Take `O=c1[nH]c2ccccc2n1C1CCN(CCCC(c2ccc(F)cc2)c2ccc(F)cc2)CC1`: the GI50 in [1] is 1.12 µM and 8.77 µM; in test [2] it was 1.66 µM and 10.9 µM; in [3], 2.3 µM; in test [4], 1.77 µM; in [5] it was 1.12 µM; in test [6], 1.54 µM and 4.49 µM. In addition, the GI50 in [7] is 1.46 µM and 3.2 µM; in [8] it was 1.06 µM and 4.22 µM; in test [9], 1.49 µM and 5.24 µM; in [10], 1.58 µM and 2.83 µM. Moreover, the TGI in test [1] was 2.36 µM and 22.7 µM; in test [2], 3.16 µM and 24.7 µM; in test [3], 6.76 µM and 30.3 µM; in [4], 3.95 µM and 19.7 µM; in test [5], 2.52 µM and 7.2 µM; in [6], 3.06 µM and 11.5 µM. Besides, the TGI in test [7] is 2.96 µM and 13.2 µM; in [8] it was 2.67 µM and 17.7 µM; in [9] it was 2.9 µM and 14.1 µM; in test [10], 3.24 µM and 7.83 µM.
For the compound `COc1cc(C(=O)/C=C/c2c(C(F)(F)F)nc3ccccn23)cc(OC)c1OC`, the GI50 in test [1] was 2.4 µM; in test [2] it was 1.95 µM; in test [3], 4.15 µM; in test [4], 2.1 µM; in test [5] it was 1.93 µM; in [6], 2.26 µM. For the same compound, the GI50 in test [7] is 1.41 µM; in [8] it was 3.52 µM; in [9], 1.29 µM; in [10], 2.05 µM. For the same compound, the TGI in test [1] is 5.77 µM; in [2], 3.79 µM; in test [3], more than 100 µM; in test [4], 7.57 µM; in test [5] it was 4.45 µM; in [6], 8.76 µM. The TGI came to 21.8 µM in test [7], 15 µM in test [8], 3.31 µM in [9] and 5.08 µM in [10].

For the origin of these results see PubChem BioAssay (NCI).
